Measured values from US7776572B2, “Method for reducing loss of enzyme activity during storage” (Corning Incorporated, priority 1996, dated 2010).

Experiments:
IgG protein = test: In-mold coating of 24-well polystyrene plates, protein binding by colloidal gold staining; settings: 1% isopropanol solution
Experimental: The in-mold coating aspects of the invention were tested by molding 24-well polystyrene plates. […] The 0.01% concentration was estimated to produce less than one monolayer of surfactant on the finished product, while the 0.1% concentration produced about 7 monolayers. The surfactant was applied to the mold using a Crown sprayer (Crown Industrial Products, Hebron, Ill.; Catalog #8011), which produces a sufficiently fine spray of droplets to uniformly coat the mold. The mold was sprayed before each part was made.

MDCK cells = test: MDCK cell attachment to coated polystyrene 24-well plates; format: cell-based; settings: coated PS 24-well, gamma sterilized, media with 5% FBS, two days, visual
Experimental: (§1) The procedures used were as follows. Polystyrene 24-well plates were coated with the non-ionic surfactants listed in Table 5 in accordance with the procedures described in Materials and Methods. Uncoated plates were used as a control. For comparison, plates with a covalently attached acrylamide coating (Corning Costar Catalog #2500) and with a stearic acid coating were also tested. The stearic acid coating was applied in the same manner as the non-ionic surfactants again using a 0.1% (w/v) solution.
(§2) The plates were gamma sterilized at 1.5 Mrad and then inoculated with 5.6×10^4 MDCK […] per well in 1 ml of complete media containing 5% FBS (Fetal Bovine Serum). Incubation was carried out at 37° C. in a 5% CO2 atmosphere for two days. The plates were fixed and stained, and cell attachment was noted. Following this, the wells were stained using the colloidal gold technique to detect bound protein. Only visual observations were made.
Experiments were also performed with cells suspended in serum. The cells used in these experiments were MDCK cells. The surfactants used were the same as used in Table 5. Again, reduced binding of the cells to surfaces treated with a non-ionic surfactant was observed.

bound protein = test: Colloidal gold staining of bound protein after MDCK culture in media containing 5% FBS, visual; settings: colloidal gold after cell culture, visual observation
Experimental: as §1, §2

IgG (horse) = test: IgG binding to 24-well plates, surfactant dried or not dried before H2O rinse, colloidal Au; settings: 0.5% surfactant in H2O/isopropanol (90/10)
Experimental: Duplicate 24-well plates were prepared as follows. Individual wells were filled with 3 ml of non-ionic surfactants at 0.5% (weight/volume) in H2O/isopropanol (90/10 weight/volume).
The duplicate plates were incubated for 30 minutes at room temperature on a rocker table and then emptied. One plate was tapped out and then allowed to dry at room temperature in a hood. It was then rinsed 5× with dI H2O. The second plate was not allowed to dry, but instead was immediately rinsed 5× with H2O. The plates were then tested for protein binding by filling each well with 0.5 ml of IgG (horse) at 10 μg/ml in PBS buffer and incubating for 30 minutes on a rocker table at room temperature. The plates were then rinsed with dI H2O and stained overnight with colloidal Au.

[1] = system: GAM-IgG-HRP (goat-anti-mouse-IgG-horseradish peroxidase enzyme labeled antibody); test: Bound enzyme labeled antibody on strips exposed to aqueous surfactant, rinsed or not rinsed, ABTS readout; settings: 0.1% surfactant in H2O/isopropanol (95/5), not dried
Experimental: Medium binding (catalog #2587) and high binding (catalog #2581) polystyrene 96-well plates (8-well strips) manufactured by Corning Costar were used as follows. […] Strips were incubated for 30 minutes at room temperature on a rocker table. Strips were then emptied and tapped out. […] Immediately following this procedure, each well was aliquoted 0.10 ml of GAM-IgG-HRP (goat-anti-mouse-IgG-horseradish peroxidase enzyme labeled antibody; Kirkegaard and Perry, Gaithersburg, Md., Catalog #074-1806) at 1.0 μg/ml in PBS buffer pH=7.4). Strips were incubated for one hour at room temperature on a rocker table. Strips were then rinsed 5× with PBS buffer containing 0.02% Tween-20 followed by post rinsing with H2O. […] Absorbance at 405 nm was measured on a Cambridge Technologies #7520 Plate Reader.

IgG = test: Coating durability using water washes, IgG binding by colloidal gold
Experimental: Polystyrene plates having 24 wells (Corning Costar #9447) were coated with these surfactants as described in Materials and Methods. Durability was tested by adding dI H2O to the wells of a test plate (3.0 mls/well), following which the plate was placed on a rocker table. […] The protein solution was incubated with the plate on a rocker table for 30 minutes at 23° C., following which the plate was H2O rinse 3× (3 mls each time). The colloidal gold staining procedure described above was used to reveal bound protein. The staining comprised an overnight incubation on a rocker table at 23° C., a dI H2O rinse, drying at room temperature, and reading at 550 nm.

BSA = test: Polymer blends molded into petri dishes, BSA binding by colloidal gold; settings: blended at 5% into polypropylene; silver enhancer
Experimental: (§3) Low binding non-ionic surfactant molecules were blended at 5% (except as noted in Table 13) into a base polymer using a twin screw extruder, then injection molded into the shape of 35 mm petri dishes. Proteins tested were BSA and Fetal Bovine Serum (FBS). Protein binding was determined using a colloidal gold staining procedure as described above. In the case of the polypropylene and EVA blends, a silver enhancer was used (Sigma Chem. Co., St, Louis, Mo., Kit #SE-100).

Fetal Bovine Serum (FBS) = test: Polymer blends molded into petri dishes, FBS protein binding by colloidal gold; settings: blended at 5% into polypropylene; silver enhancer
Experimental: as §3

Row | Compound | protein binding of in-mold coated part (IgG protein) | MDCK Attachment (MDCK cells) | Visual Color Upon Protein Staining (bound protein) | Absorbance (550 nm) Dried before H2O rinse (IgG (horse); dried, then rinsed 5x) | Absorbance (550 nm) H2O rinsed before drying (IgG (horse); not dried, rinsed 5x immediately) | Absorbance (405 nm) High Binding Polystyrene No Rinse ([1]; not rinsed) | Absorbance (405 nm) Medium Binding Polystyrene No Rinse ([1]; not rinsed) | Absorbance (405 nm) High Binding Polystyrene Rinsed ([1]; rinsed 5x with dI H2O) | Absorbance (405 nm) Medium Binding Polystyrene Rinsed ([1]; rinsed 5x with dI H2O) | Absorbance (550 nm) Initial (IgG; coated polystyrene, no water wash) | Absorbance (550 nm) 1 Time 1 hr 23° C. (IgG; dI H2O wash 1 time, 1 hr, 23° C.) | Absorbance (550 nm) 1 Time 24 hr 23° C. (IgG; dI H2O wash 1 time, 24 hr, 23° C.) | Absorbance (550 nm) 1 Time 24 hr 37° C. (IgG; dI H2O wash 1 time, 24 hr, 37° C.) | Absorbance (550 nm) 1 Time 24 hr 70° C. (IgG; dI H2O wash 1 time, 24 hr, 70° C.) | Absorbance (550 nm) 6 Times 30 min each 23° C. (IgG; dI H2O wash 6 times, 30 min each, 23° C.) | Bound Protein Absorbance (550 nm) BSA (BSA) | Bound Protein Absorbance (550 nm) FBS (Fetal Bovine Serum (FBS))
1 | CCCCCCCCCCCCCCCCCC(=O)OCC(O)CO (centres unmarked) [GLYCEROL MONO-STEARATE] | low protein binding |  |  |  |  |  |  |  |  |  |  |  |  |  |  |  | 
2 | PEO(20) SORBITOL MONO-LAURATE |  | None | None | 0.14-0.16 | 0.13-0.16 | 0.00 | 0.00 | 2.00 | 1.90 | 0.00 | 0.02 | 0.05 | 0.10 | 0.10 | 0.10 | 0.153 | 0.270
